{"source": "patent US20070270403A1", "about": "(priority 2003, published 2007)", "key": {"DA release in NAcc": {"system": "DA release in NAcc", "experiment": "In vivo microvoltammetry, DA release in NAcc (clozapine studies)", "parameters": "species or system Sprague-Dawley Rattus Norvegicus", "details": "Acute, clozapine 20 mg/kg i.p. + cocaine 10 mg/kg i.p.", "method": "(§1) There is an increasing awareness that a psychosis, similar to that of schizophrenic psychosis, can be derived from cocaine addiction. […] Release mechanisms for monoamines, were determined by using a depolarization blocker, gamma-butyrolactone (γBL). […] Acute and Subacute studies were performed for each treatment group.\n(§2) The stereotaxic equipment was purchased from David Kopf Instruments, Tujunga, Calif. A Ag/AgCl reference electrode was placed in contact with dura, 7 mm anteriorally and contralaterally to the indicator microelectrode. A stainless steel auxiliary microelectrode was placed in contact with dura. BRODERICK PROBE® microelectrodes were manufactured on site.\n(§3) In vivo microvoltammetric studies on conscious Sprague-Dawley laboratory rats were begun nine to fifteen days after the aseptic surgical operations were performed. On each experimental day, the animal was placed in a Plexiglas-copper faradaic chamber. The three-microelectrode assembly, enclosed within the animal's prosthetic acrylic cap, was connected to a CV37 detector by means of a mercury commutator (Br. Res. Instr., Princeton, N.J.), a flexible cable, and a mating connector (BJM Electronics, Staten Island, N.Y.). The CV37 detector was electrically connected to a Minigard surge suppresser (Jefferson Electric, Magnetek, N.Y.) which was then connected to an electrical ground in isolation. […] Each animal was used as its own control. Changes in synaptic concentrations of DA and 5-HT are presented as percent change (% of control) in order to minimize normal between-animal variations. […] In vivo microvoltammetric scans were recorded in sec and repeated every five min for a period of 2 hrs before each treatment and a period of two hrs after each treatment.\n(§4) Potentials were applied with a CV37 detector (BAS, West Lafayette, Ind.). Potentials were applied from −0.2V to +0.4V with respect to a Ag/AgCl (1M NaCl) electrode, at a scan rate of 10 mV/sec at time constants of 5 and 1 tau. One scan was completed in 60 sec. Non-faradaic charging current was eliminated in the first 25 sec.\n(§5) Calibration curves were determined experimentally, in vitro, in a freshly prepared deoxygenated physiological saline-phosphate buffer solution (0.01 M, pH=7.4). We use ultra pure Nitrogen (N2) (T. W. Smith Corp., Bklyn, N.Y.) to deoxygenate the buffer solution. […] Calibration studies were also performed in freshly prepared deoxygenated buffer solutions containing phosphotidylethanolamine (PEA), combined with bovine serum albumin (BSA) (Sigma Aldrich, St. Louis, Mo.), a solution which closely mimics brain constituents. […] Detection limits for basal synaptic concentrations of DA and 5-HT in NAcc were 12 nM and 2 nM respectively."}, "[1]": {"system": "Sprague-Dawley laboratory rats", "experiment": "Locomotor activity (ambulations) by infrared photobeams (clozapine studies)", "type": "in vivo, Sprague-Dawley Rattus Norvegicus", "details": "Acute, clozapine 20 mg/kg i.p. + cocaine 10 mg/kg i.p.", "text": "Locomotor activity (ambulation) was monitored with infrared photobeams at the same time as DA and 5-HT release in NAcc was detected with BRODERICK PROBES® in conjunction with In Vivo Microvoltammetry. The chamber was faradaic, covered with copper to refract possible electrical artifacts (dimensions: 24 in (width) by 18 in (depth) by 23.5 in (height)). A 16 by 16 array of these infrared photobeams, were held in place by an aluminum frame which was situated ¾ in above the Plexiglas floor of the chamber to detect locomotor activity. Photobeams were sampled by a Pentium computer to define the x-y position of the animal within a 1.5 in resolution every 100 msec. When an x-y position was calculated, it was used to define the frequency of locomotor activity in counts. The locomotor activity system is a modified version of an Activity Pattern Monitor (APM) (San Diego Instruments, San Diego, Calif.). Behavioral data is presented in absolute frequency, i.e., number of counts recorded.\nThe first hr pre-drug allowed exploratory behavior. Exploratory behavior is defined as open-field behavior of ambulations (forward locomotion) wherein animals respond to the stimuli of a novel environment with high frequency of behavioral counts. The second hr pre-drug allowed the animal to become habituated before treatment.\nIn the Acute studies, each drug was administered at the end of the habituation period. Baseline (control) values were taken every five min for the last thirty min of the habituation period at which time drug injection(s) took place. Electrochemical recordings for DA and 5-HT release in NAcc, were continued for two hrs; at the same time, locomotor behavior continued to be monitored and recorded with infrared photobeams. At the end of the 2 hr drug(s) study, animals were then placed back in their home cages.\nIn the Subacute studies, which took place twenty-four hrs later, the animals were again placed in the faradaic behavioral chamber and no further drug was administered. Recordings of separate electrochemical signals for DA and 5-HT release in NAcc, were taken for one hr; at the same time, locomotor behavior was monitored and recorded with infrared photobeams.\nNeurochemical and behavioral data, derived from the last thirty minutes of the habituation period, provided the baseline data. […] Where appropriate, data points in the time course were subjected to 95% Confidence Limits (C.L.)."}, "5-HT release in NAcc": {"system": "5-HT release in NAcc", "experiment": "In vivo microvoltammetry, 5-HT release in NAcc (clozapine studies)", "parameters": "species or system Sprague-Dawley Rattus Norvegicus", "details": "Acute, clozapine 20 mg/kg i.p. + cocaine 10 mg/kg i.p.", "method": "as §1, §2, §3, §4, §5"}, "[2]": {"details": "cited from earlier work"}, "[3]": {"details": "cited from earlier work", "remark": "listed apart in the source"}, "[4]": {"details": "independent of the rate of metabolism; cited from earlier work"}}, "note": "Like-named read-outs stand apart in the source and are kept apart here.", "data": [{"molecule": "CN1CCN(C2=Nc3cc(Cl)ccc3Nc3ccccc32)CC1", "note": "[Clozapine, clozapine]", "values": [{"measurement": "Average reduction of cocaine-induced increases in DA release in NAcc", "setting": "DA release in NAcc; first hr of study", "value": 40, "unit": "%"}, {"measurement": "Average reduction of cocaine-induced increases in DA release in NAcc", "setting": "DA release in NAcc; second hr of study", "value": 50, "unit": "%"}, {"measurement": "Average reduction of locomotor activity (ambulation counts) produced by cocaine", "setting": "[1]; first half hr", "value": 500, "unit": "counts"}, {"measurement": "Average reduction of locomotor activity (ambulation counts) produced by cocaine", "setting": "[1]; next hr of study", "value": 150, "unit": "counts"}, {"measurement": "Average reduction of cocaine-induced increases in 5-HT release in NAcc", "setting": "5-HT release in NAcc; first hr of study", "value": 138, "unit": "%"}, {"measurement": "Average reduction of cocaine-induced increases in 5-HT release in NAcc", "setting": "5-HT release in NAcc; second hr of study", "value": 113, "unit": "%"}, {"measurement": "half-life", "setting": "[2]; at higher doses", "value": "4 to 66", "unit": "h"}, {"measurement": "half-life", "setting": "[2]; at lower doses", "value": 8, "unit": "h"}]}, {"molecule": "CN1[C@H]2CC[C@@H]1[C@@H](C(=O)O)[C@@H](OC(=O)c1ccccc1)C2", "note": "[benzoylecgonine]", "values": [{"measurement": "elimination half-life", "setting": "[3]; after bolus injections (e.g., 14.7 umol/kg)", "value": "0.667 to 0.733", "unit": "h"}]}, {"molecule": "Cc1nc2n(c(=O)c1CCN1CCC(c3noc4cc(F)ccc34)CC1)CCCC2O", "note": "(centres unmarked) [9-hydroxyrisperidone]", "values": [{"measurement": "Time for which the metabolite is active", "setting": "[4]", "value": 22, "unit": "h"}]}, {"molecule": "COC(=O)[C@H]1[C@@H](OC(=O)c2ccccc2)C[C@@H]2CC[C@H]1N2", "note": "[norcocaine]", "values": [{"measurement": "Detection in brain", "setting": "[3]; after i.v. cocaine (20-40 mg/kg)", "value": "not detected at all"}]}]}
